Measured values published in ChEMBL document CHEMBL1649421, “New drug-like hydroxyphenylnaphthol steroidomimetics as potent and selective 17β-hydroxysteroid dehydrogenase type 1 inhibitors for the treatment of estrogen-dependent diseases” (J Med Chem, 2011).

Columns and labels:
[1] = target: T1, 17-beta-hydroxysteroid dehydrogenase type 1 (Homo sapiens) (UniProt P14061); experiment: Inhibition of [3H]E1 binding to human placental 17beta-HSD1 at 1 uM after 10 mins by fluid scintillation counting
T1 sequence (whole entry): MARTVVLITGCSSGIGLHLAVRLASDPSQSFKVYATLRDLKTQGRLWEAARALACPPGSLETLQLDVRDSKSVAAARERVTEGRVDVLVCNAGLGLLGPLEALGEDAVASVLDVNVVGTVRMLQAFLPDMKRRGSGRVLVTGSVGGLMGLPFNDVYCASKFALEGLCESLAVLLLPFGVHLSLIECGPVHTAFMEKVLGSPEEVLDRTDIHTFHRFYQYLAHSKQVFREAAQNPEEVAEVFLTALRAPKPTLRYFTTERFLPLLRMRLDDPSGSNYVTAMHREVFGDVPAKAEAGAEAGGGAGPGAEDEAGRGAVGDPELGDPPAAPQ

[2] = target: T2, 17-beta-hydroxysteroid dehydrogenase type 2 (Homo sapiens) (UniProt P37059); experiment: Inhibition of [3H]E2 binding to human placental 17beta-HSD2 at 1 uM after 10 mins by fluid scintillation counting
T2 sequence (whole entry): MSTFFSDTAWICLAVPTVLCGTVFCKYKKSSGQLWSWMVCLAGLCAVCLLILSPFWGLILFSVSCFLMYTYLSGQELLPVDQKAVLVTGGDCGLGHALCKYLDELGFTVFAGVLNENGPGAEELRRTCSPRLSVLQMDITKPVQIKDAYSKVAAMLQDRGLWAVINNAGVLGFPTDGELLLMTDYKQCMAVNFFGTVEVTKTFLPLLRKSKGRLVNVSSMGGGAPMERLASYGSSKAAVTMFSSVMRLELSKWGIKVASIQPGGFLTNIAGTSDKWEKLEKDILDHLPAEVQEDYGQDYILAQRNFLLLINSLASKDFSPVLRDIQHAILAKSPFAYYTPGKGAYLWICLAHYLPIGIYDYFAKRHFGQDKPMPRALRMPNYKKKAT

[3] = target: Cytochrome P450 3A4 (Homo sapiens, UniProt P08684); experiment: Inhibition of human CYP3A4; format: ADME
Sequence of Cytochrome P450 3A4 (P08684 whole entry): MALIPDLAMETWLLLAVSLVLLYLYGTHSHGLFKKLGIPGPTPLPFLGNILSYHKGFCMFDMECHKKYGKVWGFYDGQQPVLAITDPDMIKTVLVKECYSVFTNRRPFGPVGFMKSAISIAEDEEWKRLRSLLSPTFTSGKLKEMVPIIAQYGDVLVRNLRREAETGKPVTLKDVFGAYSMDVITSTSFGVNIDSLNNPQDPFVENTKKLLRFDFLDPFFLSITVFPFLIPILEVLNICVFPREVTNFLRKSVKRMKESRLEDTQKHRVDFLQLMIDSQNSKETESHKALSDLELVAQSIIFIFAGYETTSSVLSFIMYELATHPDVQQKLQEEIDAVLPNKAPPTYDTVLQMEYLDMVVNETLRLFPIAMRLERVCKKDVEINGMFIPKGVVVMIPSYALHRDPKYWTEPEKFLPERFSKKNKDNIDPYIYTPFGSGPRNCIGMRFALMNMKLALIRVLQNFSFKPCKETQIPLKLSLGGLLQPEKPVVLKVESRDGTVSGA

[4] = organism: Homo sapiens; experiment: Selectivity ratio of IC50 for human placental 17beta-HSD2 to IC50 for human placental 17beta-HSD1
[5] = target: T3, 17-beta-hydroxysteroid dehydrogenase type 1 (Homo sapiens, UniProt P14061); experiment: Displacement of [3H]E1 from 17beta-HSD1 in human T47D cells after 10 mins by fluid scintillation counting; format: cell-based
T3 sequence (P14061 whole entry): T1 sequence (whole entry)

[6] = target: T2, 17-beta-hydroxysteroid dehydrogenase type 2 (Homo sapiens); experiment: Inhibition of [3H]E2 binding to human recombinant 17beta-HSD2 expressed in baculovirus-infected Sf9 cells at 1 uM after 10 mins by fluid scintillation counting
[7] = target: T4, Cytochrome P450 2B6 (Homo sapiens, UniProt P20813); experiment: Inhibition of human CYP2B6; format: ADME
T4 sequence (P20813 whole entry): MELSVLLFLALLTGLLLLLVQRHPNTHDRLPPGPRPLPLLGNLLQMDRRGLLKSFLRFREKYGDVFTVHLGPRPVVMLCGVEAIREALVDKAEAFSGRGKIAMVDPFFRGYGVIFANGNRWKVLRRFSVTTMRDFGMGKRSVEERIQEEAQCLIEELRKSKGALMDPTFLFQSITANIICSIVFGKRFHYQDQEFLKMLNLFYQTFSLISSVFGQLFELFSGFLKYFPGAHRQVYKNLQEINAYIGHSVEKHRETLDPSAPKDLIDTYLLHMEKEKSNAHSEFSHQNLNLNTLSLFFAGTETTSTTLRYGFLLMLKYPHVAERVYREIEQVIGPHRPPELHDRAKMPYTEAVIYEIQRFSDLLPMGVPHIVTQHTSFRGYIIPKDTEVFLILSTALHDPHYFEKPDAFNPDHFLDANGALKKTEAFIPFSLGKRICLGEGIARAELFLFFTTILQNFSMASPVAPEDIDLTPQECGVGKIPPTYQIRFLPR

[8] = target: Cytochrome P450 2C9 (Homo sapiens, UniProt P11712); experiment: Inhibition of human CYP2C9; format: ADME
Sequence of Cytochrome P450 2C9 (P11712 whole entry): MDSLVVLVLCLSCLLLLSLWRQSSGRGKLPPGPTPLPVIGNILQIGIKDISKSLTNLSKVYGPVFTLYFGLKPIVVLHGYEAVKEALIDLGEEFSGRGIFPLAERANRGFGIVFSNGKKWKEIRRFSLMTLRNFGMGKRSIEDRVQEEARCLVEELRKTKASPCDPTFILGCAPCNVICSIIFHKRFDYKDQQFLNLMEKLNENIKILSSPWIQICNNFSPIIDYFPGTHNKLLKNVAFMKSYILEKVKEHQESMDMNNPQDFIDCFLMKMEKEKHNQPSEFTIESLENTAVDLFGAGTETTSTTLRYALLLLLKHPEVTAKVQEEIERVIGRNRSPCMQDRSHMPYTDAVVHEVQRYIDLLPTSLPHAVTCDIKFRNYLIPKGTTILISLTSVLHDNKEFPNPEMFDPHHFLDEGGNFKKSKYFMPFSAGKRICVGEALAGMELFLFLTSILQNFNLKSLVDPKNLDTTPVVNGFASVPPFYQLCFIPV

[9] = target: T1, 17-beta-hydroxysteroid dehydrogenase type 1 (Homo sapiens); experiment: Inhibition of [3H]E1 binding to human recombinant 17beta-HSD1 expressed in baculovirus-infected Sf9 cells at 1 uM after 10 mins by fluid scintillation counting
[10] = target: T2, 17-beta-hydroxysteroid dehydrogenase type 2 (Homo sapiens); experiment: Inhibition of [3H]E2 binding to human recombinant 17beta-HSD2 expressed in baculovirus-infected Sf9 cells at 100 nM after 10 mins by fluid scintillation counting
[11] = target: T5, Cytochrome P450 1A2 (Homo sapiens, UniProt P05177); experiment: Inhibition of human CYP1A2; format: ADME
T5 sequence (P05177 whole entry): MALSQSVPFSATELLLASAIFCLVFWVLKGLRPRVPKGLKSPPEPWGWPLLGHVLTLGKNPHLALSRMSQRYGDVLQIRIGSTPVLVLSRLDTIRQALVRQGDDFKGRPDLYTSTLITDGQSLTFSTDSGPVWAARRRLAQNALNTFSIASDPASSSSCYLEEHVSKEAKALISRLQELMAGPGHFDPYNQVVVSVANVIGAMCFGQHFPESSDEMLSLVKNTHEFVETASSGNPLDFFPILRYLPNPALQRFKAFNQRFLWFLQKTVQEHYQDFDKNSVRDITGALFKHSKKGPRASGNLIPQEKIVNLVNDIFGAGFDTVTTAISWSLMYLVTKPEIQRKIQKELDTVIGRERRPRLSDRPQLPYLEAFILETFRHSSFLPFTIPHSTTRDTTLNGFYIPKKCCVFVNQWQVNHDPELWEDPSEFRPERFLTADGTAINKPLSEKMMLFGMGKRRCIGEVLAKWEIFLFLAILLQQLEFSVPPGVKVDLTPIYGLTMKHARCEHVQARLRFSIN

[12] = target: T3, 17-beta-hydroxysteroid dehydrogenase type 1; experiment: Displacement of [3H]E1 from human placental 17beta-HSD1 after 10 mins by fluid scintillation counting
[13] = target: T6, Estrogen receptor (Homo sapiens) (UniProt P03372); experiment: Displacement of [3H]E2 from human recombinant ERalpha by liquid scintillation counting relative to estradiol
T6 sequence (whole entry): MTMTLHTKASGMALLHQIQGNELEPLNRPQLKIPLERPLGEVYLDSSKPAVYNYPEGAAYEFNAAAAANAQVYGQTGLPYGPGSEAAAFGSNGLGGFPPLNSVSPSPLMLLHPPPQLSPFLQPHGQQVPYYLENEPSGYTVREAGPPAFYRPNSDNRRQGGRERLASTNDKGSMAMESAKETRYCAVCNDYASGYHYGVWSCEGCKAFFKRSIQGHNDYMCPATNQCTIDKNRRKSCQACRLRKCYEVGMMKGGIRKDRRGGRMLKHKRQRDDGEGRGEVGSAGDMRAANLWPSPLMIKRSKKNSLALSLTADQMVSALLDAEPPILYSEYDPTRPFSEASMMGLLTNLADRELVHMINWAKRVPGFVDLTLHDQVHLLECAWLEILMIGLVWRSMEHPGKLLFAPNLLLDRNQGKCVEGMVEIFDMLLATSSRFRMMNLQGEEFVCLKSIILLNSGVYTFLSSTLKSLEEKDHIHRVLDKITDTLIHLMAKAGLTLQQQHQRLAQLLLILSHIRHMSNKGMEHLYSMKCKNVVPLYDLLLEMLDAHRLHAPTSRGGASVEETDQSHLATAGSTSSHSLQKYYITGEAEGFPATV

[14] = target: Estrogen receptor beta (Homo sapiens) (UniProt Q92731); experiment: Displacement of [3H]E2 from human recombinant ERbeta by liquid scintillation counting relative to estradiol
Sequence of Estrogen receptor beta (Homo sapiens) (Q92731 whole entry): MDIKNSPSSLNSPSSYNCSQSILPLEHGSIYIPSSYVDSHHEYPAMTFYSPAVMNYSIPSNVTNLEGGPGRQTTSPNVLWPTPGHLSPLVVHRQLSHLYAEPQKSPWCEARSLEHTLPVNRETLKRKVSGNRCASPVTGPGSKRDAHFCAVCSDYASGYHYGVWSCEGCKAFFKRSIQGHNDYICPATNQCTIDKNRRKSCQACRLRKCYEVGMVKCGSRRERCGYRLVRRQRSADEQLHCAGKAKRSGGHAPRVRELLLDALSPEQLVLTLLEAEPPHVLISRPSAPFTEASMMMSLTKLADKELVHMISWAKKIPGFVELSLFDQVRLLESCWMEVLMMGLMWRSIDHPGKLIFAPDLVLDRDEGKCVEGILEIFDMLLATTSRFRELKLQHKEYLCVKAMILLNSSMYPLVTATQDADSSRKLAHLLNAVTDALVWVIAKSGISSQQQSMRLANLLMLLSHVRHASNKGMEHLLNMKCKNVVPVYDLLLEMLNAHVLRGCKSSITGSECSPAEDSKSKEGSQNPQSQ

[15] = target: T1, 17-beta-hydroxysteroid dehydrogenase type 1 (Homo sapiens); experiment: Inhibition of [3H]E1 binding to human recombinant 17beta-HSD1 expressed in baculovirus-infected Sf9 cells at 100 nM after 10 mins by fluid scintillation counting
[16] = target: Cytochrome P450 2D6 (Homo sapiens, UniProt P10635); experiment: Inhibition of human CYP2D6; format: ADME
Sequence of Cytochrome P450 2D6 (P10635 whole entry): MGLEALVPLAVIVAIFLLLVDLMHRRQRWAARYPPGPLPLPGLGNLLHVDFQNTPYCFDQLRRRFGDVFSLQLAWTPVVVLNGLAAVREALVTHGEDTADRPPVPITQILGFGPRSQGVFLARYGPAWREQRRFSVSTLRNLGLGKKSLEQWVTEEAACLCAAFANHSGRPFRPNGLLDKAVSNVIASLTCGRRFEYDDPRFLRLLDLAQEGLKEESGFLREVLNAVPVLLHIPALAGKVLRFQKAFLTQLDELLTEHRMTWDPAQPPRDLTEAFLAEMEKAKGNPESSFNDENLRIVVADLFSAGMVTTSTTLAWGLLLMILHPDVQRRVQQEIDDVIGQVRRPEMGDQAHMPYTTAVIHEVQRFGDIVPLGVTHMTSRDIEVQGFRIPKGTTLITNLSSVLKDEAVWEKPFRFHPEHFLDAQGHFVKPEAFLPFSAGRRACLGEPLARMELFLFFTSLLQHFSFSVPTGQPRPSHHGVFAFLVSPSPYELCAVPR

[17] = target: Cytochrome P450 2C19 (Homo sapiens, UniProt P33261); experiment: Inhibition of human CYP2C19; format: ADME
Sequence of Cytochrome P450 2C19 (P33261 whole entry): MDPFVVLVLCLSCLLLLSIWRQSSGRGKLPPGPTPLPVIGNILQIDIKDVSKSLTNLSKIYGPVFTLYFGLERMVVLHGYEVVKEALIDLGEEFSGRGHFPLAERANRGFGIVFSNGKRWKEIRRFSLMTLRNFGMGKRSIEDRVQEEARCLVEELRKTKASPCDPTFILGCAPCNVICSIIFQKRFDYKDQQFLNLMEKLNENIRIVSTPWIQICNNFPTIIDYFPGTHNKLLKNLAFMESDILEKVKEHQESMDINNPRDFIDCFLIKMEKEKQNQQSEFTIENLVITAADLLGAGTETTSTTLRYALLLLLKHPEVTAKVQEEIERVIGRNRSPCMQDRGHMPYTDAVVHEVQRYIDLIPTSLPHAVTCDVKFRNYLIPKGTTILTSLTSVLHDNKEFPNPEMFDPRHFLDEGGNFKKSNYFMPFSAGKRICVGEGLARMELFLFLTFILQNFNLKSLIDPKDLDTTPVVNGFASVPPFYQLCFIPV

[18] = target: T1, 17-beta-hydroxysteroid dehydrogenase type 1 (Homo sapiens); experiment: Inhibition of [3H]E1 binding to human placental 17beta-HSD1 at 100 nM after 10 mins by fluid scintillation counting
[19] = target: T7, 17-beta-hydroxysteroid dehydrogenase type 2 (Homo sapiens, UniProt P37059); experiment: Displacement of [3H]E2 from human placental 17beta-HSD2 after 10 mins by fluid scintillation counting
T7 sequence (P37059 whole entry): T2 sequence (whole entry)

[20] = Half life in Sprague-Dawley rat liver microsomes by LC-MS/MS analysis; format: ADME, Microsome
[21] = Apparent permeability across human Caco2 cells after 180 mins by LC-MS/MS analysis; format: ADME, cell-based; settings: Caco-2

SMILES | inhibition [1] [%] | inhibition [2] [%] | inhibition [6] [%] | inhibition [9] [%] | inhibition [10] [%] | RBA [13] [%] | RBA [14] [%] | inhibition [15] [%] | further results
Oc1ccccc1-c1ccc2c(-c3cncnc3)cccc2c1 | < 10 | < 10 | – | – | – | – | – | – | –
Oc1cccc(-c2ccc3c(-c4cccc(O)c4)c(O)ccc3c2)c1 | – | – | 40 | 93 | < 10 | 0.01 | 0.01 | 83 | IC50 [3]: 40 nM; Ratio IC50 [4]: 27; IC50 [5]: 115 nM; IC50 [7]: 11800 nM; IC50 [8]: 270 nM; IC50 [11]: 19000 nM; IC50 [12]: 36 nM; IC50 [16]: 24800 nM; IC50 [17]: 6030 nM
COc1ncc(-c2c(O)ccc3cc(-c4cccc(O)c4)ccc23)c(OC)n1 | 79 | 9 | – | – | – | – | – | – | inhibition [18]: 31%
COc1ccc(-c2c(O)ccc3cc(-c4cccc(O)c4)ccc23)cn1 | – | – | 67 | 89 | 24 | 0.01 | < 0.01 | 86 | IC50 [19]: 530 nM; half-life [20]: 4.82 h; Papp at 3 h [21]: 8 ×10⁻⁶ cm/s
Oc1cccc(-c2ccc3c(-c4ccc5[nH]ccc5c4)c(O)ccc3c2)c1 | 87 | 19 | – | – | – | – | – | – | inhibition [18]: 50%
O=C(O)c1cccc(-c2c(O)ccc3cc(-c4cccc(O)c4)ccc23)c1 | – | – | 34 | 80 | < 10 | – | – | 45 | –
Oc1cccc(-c2ccc3cc(O)ccc3c2)c1 | – | – | – | – | – | 0.1 | 0.1 | – | Ratio IC50 [4]: 49; IC50 [5]: 229 nM
CC(=O)Nc1cccc(-c2c(O)ccc3cc(-c4cccc(O)c4)ccc23)c1 | – | – | 64 | 82 | 24 | – | – | 35 | –
O=C(O)CCC(=O)Nc1cccc(-c2c(O)ccc3cc(-c4cccc(O)c4)ccc23)c1 | – | – | 68 | 62 | 24 | – | – | < 10 | –
Oc1cccc(-c2ccc3c(-c4ccc(N5CCOCC5)cc4)c(O)ccc3c2)c1 | – | – | 32 | 65 | 12 | – | – | 32 | –
Oc1cccc(-c2ccc3c(-c4ccoc4)c(O)ccc3c2)c1 | – | – | 92 | 89 | 61 | 0.01 | 0.01 | 83 | Ratio IC50 [4]: 8; IC50 [12]: 70 nM
Oc1cccc(-c2ccc3c(-c4ccccc4)c(O)ccc3c2)c1 | – | – | 77 | – | 22 | 0.01 | 0.01 | – | IC50 [3]: 2770 nM; Ratio IC50 [4]: 27; IC50 [5]: 281 nM; IC50 [7]: 7960 nM; IC50 [8]: 1640 nM; Papp at 3 h [21]: 9.3 ×10⁻⁶ cm/s; IC50 [11]: 7160 nM; IC50 [16]: 15500 nM; IC50 [17]: 1410 nM

The next lines start with results.

inhibition [1] [%] | inhibition [2] [%] | inhibition [6] [%] | inhibition [9] [%] | inhibition [10] [%] | RBA [13] [%] | RBA [14] [%] | inhibition [15] [%] | SMILES | further results
< 10 | < 10 | – | – | – | – | – | – | Oc1cccc(-c2ccc3c(-c4cncnc4)cccc3c2)c1 | –
– | – | 49 | 86 | 12 | 0.01 | < 0.01 | 74 | Oc1cccc(-c2ccc3c(-c4ccncc4)c(O)ccc3c2)c1 | IC50 [12]: 64 nM
< 10 | < 10 | – | – | – | – | – | – | Oc1ccccc1-c1ccc2c(-c3cncnc3)c(O)ccc2c1 | –
22 | < 10 | – | – | – | – | – | – | Oc1ccc2cc(-c3ccccc3)ccc2c1-c1cncnc1 | –
41 | 85 | – | – | – | – | – | – | Oc1cccc(-c2ccc3c(-c4cncnc4)c(O)ccc3c2)c1 | inhibition [18]: < 10%
71 | 24 | – | – | – | – | – | – | Cn1cc(-c2c(O)ccc3cc(-c4cccc(O)c4)ccc23)cn1 | inhibition [18]: 28%
35 | 22 | – | – | – | – | – | – | Oc1ccc(-c2ccc3c(-c4cncnc4)c(O)ccc3c2)cc1 | –
